Results published in US20140113904A1, “TREATMENT OF CANCER WITH TOR KINASE INHIBITORS” (SIGNAL PHARMACEUTICALS, LLC, priority 2012, published 2014).

Experiments:
[1] = test system: S6RP(S235/S236); assay: Phospho-S6RP(S235/S236) in PC3 cell lysates, MSD; format: cell-based, human; conditions: PC3, 1 hour exposure; read-out: p-S6RP(S235/S236) IC50
Text: The direct substrate for TORC1 was 4E-BP 1(T46) and indirect downstream substrate was S6RP(S235/S236). The direct substrate for TORC2 was Akt(S473) and indirect downstream substrates measured were GSK3β(S9) and PRAS40(T246). Additionally, the phosphorylation status of Akt(T308), a phosphorylation site for PDK1 was monitored.
MSD® biomarker detection assays provide a rapid and convenient method for measuring the total and phosphorylated levels of protein targets within a single small volume sample. These assays are available in both single-plex and multiplex formats. In a single-plex assay, an antibody for a specific protein target is coated on one electrode (or spot) per well. […] MSD Read Buffer that provides the appropriate chemical environment for ECL is added and the plate is read using an MSD SECTOR™ Imager. […] The instrument measures intensity of the emitted light to afford a quantitative measure of the amount of phosphorylated Akt or S6RP present in the sample. […]
The assay plate was incubated with 150 μL of MSD Blocker A Solution for 1 hour with shaking at room temperature. […] Then 150 μL of 1×MSD Read Buffer T was added to each well. The plate was read on the SECTOR Imager plate reader. The Excel data was transferred to Activity Base and IC50 values were calculated.
All data was analyzed using XLfit from IDBS. […]

[2] = test system: PRAS40 (T246); assay: Phospho-PRAS40 (T246) in PC-3 cell lysates, MSD (Compound 2); format: cell-based; conditions: Homo sapiens; PC-3, 1 hour; read-out: mTORC2 PRAS40 (T246) IC50
Description: The direct substrate for mTORC1 was 4E-BP1(T46) and the indirect downstream substrate was S6RP (S235/S236). The direct substrate for mTORC2 was AKT (S473) and the indirect downstream substrates measured were GSK3β(S9) and PRAS40 (T246). Additionally, the phosphorylation status of AKT (T308), a phosphorylation site for PDK1, was monitored. Concentration-response curves were plotted and IC50 values determined. Cells were plated in 96-well flat bottom plates at the required density (PC-3 cells/well) and the cells were allowed to equilibrate at 37° C., 5% CO2 overnight. […] After the incubation period, the culture media was removed carefully with an aspirator. The plate was placed on ice and 50 μL of 1× Tris Lysis Buffer was added to each well. The plate was placed on a shaker at 4° C. for 1 hour to lyse the cells. At that point, the plate was either frozen at -80° C. for later analysis or immediately assayed for phosphoproteins as described below. To monitor interassay variability, a reference standard was included in the assay for PC-3 cells and the coefficient of variation for assay of […]) was 9.3% (n=50) and for assay of p-AKT (S473) was 28.6% (n=50). The assay plate was incubated with 150 μL of MSD Blocking Buffer for 1 hour with shaking at room temperature. […] Then 150 μL of 1×MSD Read Buffer T was added to each well. The plate was read on the SECTOR Imager plate reader.

[3] = test system: Ki67; assay: Ki67 immunohistochemistry in PC3 tumors (Compound 2); format: in vivo, SCID mice; conditions: 5 mg/kg oral QD for 6 days, 2 hours after last dose
[4] = test system: PC3 tumors; assay: Apoptosis TUNEL assay in PC3 tumors (Compound 2); format: in vivo, SCID mice; conditions: 5 mg/kg oral QD for 6 days, data not shown

| Structure (SMILES) | IC50 [1] [µM] | IC50 [2] [µM] | reduction in the number of proliferating cells (Ki67) vs vehicle [3] [%] | number of TUNEL-positive cells vs vehicle [4] |
| --- | --- | --- | --- | --- |
| CO[C@H]1CC[C@H](N2C(=O)CNc3ncc(-c4ccc(C(C)(C)O)nc4)nc32)CC1 [Compound 1, 7-(6-(2-hydroxypropan-2-yl)pyridin-3-yl)-1-((1r,4r)-4-methoxycyclohexyl)-3,4-dihydropyrazino-[2,3-b]pyrazin-2(1H)-one] | 0.02 |  |  |  |
| CCN1C(=O)CNc2ncc(-c3ccc(-c4nc[nH]n4)nc3C)nc21 [Compound 2, 1-ethyl-7-(2-methyl-6-(1H-1,2,4-triazol-3-yl)pyridin-3-yl)-3,4-dihydropyrazino[2,3-b]pyrazin-2(1H)-one] |  | 0.049 | 93 | No significant change |
